Data taken from PMC7340254, “Structure-based screening of binding affinities via small-angle X-ray scattering” (IUCrJ, 2020).

How the values were obtained:
[1] = biological target: T1, histidine-binding protein (HisBP) (Escherichia coli, UniProt P0AEU0); assay: biochemical
Experimental: (§1) All ITC measurements were conducted on a Malvern MicroCal PEAQ ITC at 20°C with stirring at 200 rev min^−1 using the same buffer as in SAXS measurements. The cell was initially loaded with 200 µl of 20 µM protein with an initial ligand concentration of 200 µM in the syringe to quantify His:HisBP binding. This was further adjusted in subsequent runs to resolve weaker interactions as necessary.

[2] = biological target: T2, glutamine-binding protein (GlnBP) (Escherichia coli, UniProt P0AEQ3); assay: Isothermal titration calorimetry (ITC, this work); parameters: species or system E. coli; details: 20°C, read-out: K D (ITC, this work)
T2 construct: Uniprot entry P0AEQ3, residues 23–248; made in house; host or cells: E. coli BL21(DE3)
Experimental: as §1

GlnBP = biological target: GlnBP; parameters: method as in Clifton & Jackson (2016); details: ref Clifton & Jackson (2016), read-out: K D (ITC, literature); cited from earlier work
HisBP = biological target: HisBP; parameters: method as in Paul et al. (2016); details: ref Paul et al. (2016), read-out: K D (ITC, literature); cited from earlier work
[3] = biological target: T1, histidine-binding protein (HisBP); assay: biochemical; remark: listed apart in the source
Experimental: Titrations were conducted at fixed protein concentrations to exclude signal-to-noise factors. An initial mass concentration of 2.0 or 4.0 mg ml^−1 was employed in prospective experiments, then scaled to 2.0, 1.0, 0.5 and 0.25 mg ml^−1 in later concentration-variation studies. […] A total of eight beamline experiments were conducted, using the automated sample changing environments available on site, operated in constant-flow mode: three times at ESRF BM29, three at DESY P12, once at Australian Synchrotron SAXS/WAXS and once at Diamond B21. […] Furthermore, experiments at ESRF BM29 and Diamond B21 were carried out on site, while the DESY P12 experiment was carried out by mail-in. For these measurements, samples were prepared by pipetting ligand–protein mixtures onto 96-well plates prior to transport. As for the Australian Synchrotron measurements, apo–HisBP was lyophilized in its final buffer and reconstituted on site using pure H2O and then mixed with the ligands in 96-well plates.
Buffer-subtracted intensities provided from respective synchrotron pipelines were used as starting points for analysis. […] Thus, an intermediate value of 7.2 nm was fixed for all computations involving D max including V R.
This was used to assist in locating data points affected by sample handling errors or measurement failures, along with detectable aggregation. The ideal minimum angle after removal of parasitic scattering is 0.1–0.15 nm^−1, although a more conservative cutoff was used to collectively eliminate residual aggregation. The maximum usable q was determined by visual inspection of noise. The final ranges used across all HisBP beamline sessions were: 0.2–2.0 nm^−1 at 20 µM and below, 0.25–2.5 nm^−1 at 40 µM, and 0.3–3 nm^−1 above 80 µM. The q-ranges for DEBP and GlnBP were set to 0.1–2.8 nm^−1.
A common scattering reference is created per HisBP concentration and per beamline experiment by averaging apo protein replicates after discarding outliers. This reference is used for both V R and χlin computations.
To fit binding curves against metrics, we consider all titrations conducted per protein concentration per beamline experiment as a single set, after removing data points resulting from aggregation, preparation errors or measurement errors. […] Since the two-state binding curve at constant [R] cannot effectively discriminate between K D values much larger or smaller than [R], fitted K D values are limited to within four orders of magnitude of the receptor concentration (cf. Fig. S1). […] Error bars indicate σ of logK D from the ensemble of replicate predictions. For metrics where uncertainty was not computed (V R and V P), the uncertainty was estimated by single-point removal, where K D was recomputed after removal of each titration point. The σ of the resulting replicates are taken as the σ of logK D. To eliminate cases where the fitting process fails due to ill-constrained parameters, replicates were discarded if the fitted apo–holo differences were >3σ from the mean value of all replicates.

[4] = biological target: T2, glutamine-binding protein (GlnBP); assay: SAXS-based ligand titration; parameters: species or system E. coli; details: ESRF, 3.0 × 10^12 photons, GlnBP 80 µM; 'no change' = no significant changes in scattering curves
From the text: Their preliminary results have been excluded from this report.

[5] = biological target: T1, histidine-binding protein (HisBP); assay: NMR chemical shift perturbation titration; parameters: Uniprot entry P0AEU0, residues 23–260; His6 tag with TEV cleavage site (N, cleaved yes); made in house; host or cells: E. coli BL21(DE3); species or system E. coli; details: HisBP 200 µM, 298 K, chemical shift perturbations; read-out: K D (NMR)
From the text: All NMR experiments have been carried out at 298 K on an 800 MHz Bruker Avance III NMR spectrometer equipped with a cryogenic probehead. […] Data were processed with NMRpipe (Delaglio et al., 1995[▸]), analyzed using NMRFAM-Sparky (Lee et al., 2015[▸]) and visualized with Python modules nmrglue and matplotlib (Helmus & Jaroniec, 2013[▸]; Hunter, 2007[▸]).
Backbone assignments of apo- and His-bound HisBP have been derived from BMRB entries 19242 and 19245 (Chu et al., 2013[▸]). The assignment of Arg-bound HisBP is produced by extending the apo-HisBP assignment along titrations, leaving sites in slow exchange unassigned. For affinity computations based on chemical shift perturbations, ^1H and ^15N shifts have been combined to a composite shift δ = [(δH)^2 + (0.2δN)^2]^1/2. The derivation of an overall dissociation constant from chemical shift perturbations follows the work by Williamson (2013[▸]), where the shift in peak position is used to derive free and bound populations without considering peak intensities. The effect of site-specific exchange rates upon peak positions is taken into account (London, 1993[▸]). We discarded residues with either insignificant shifts at saturation (δ < 0.05) or which were in slow exchange such that peak positions alone were no longer informative. […]

T1 sequence (P0AEU0 23-260): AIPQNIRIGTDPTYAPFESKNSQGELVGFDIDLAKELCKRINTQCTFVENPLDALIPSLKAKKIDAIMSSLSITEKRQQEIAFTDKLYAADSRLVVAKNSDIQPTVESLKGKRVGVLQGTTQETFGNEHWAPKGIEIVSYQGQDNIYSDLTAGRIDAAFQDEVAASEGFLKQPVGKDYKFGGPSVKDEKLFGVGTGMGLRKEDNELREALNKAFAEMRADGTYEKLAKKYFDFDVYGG
T2 sequence (P0AEQ3 23-248): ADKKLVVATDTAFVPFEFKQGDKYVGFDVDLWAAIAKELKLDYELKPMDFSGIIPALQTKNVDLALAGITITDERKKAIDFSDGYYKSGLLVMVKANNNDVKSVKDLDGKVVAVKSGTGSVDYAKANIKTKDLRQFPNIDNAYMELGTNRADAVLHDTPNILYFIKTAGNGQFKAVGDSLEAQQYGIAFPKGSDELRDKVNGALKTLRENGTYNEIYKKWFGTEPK

## N=C(N)NCCC[C@H](N)C(=O)O [Arg, arginine]
[1]
  Kd: 2060 ± 220 nM
[2]
  Kd: 78900 ± 8600 nM
GlnBP
  Kd: 93800 ± 7400 nM
HisBP
  Kd: 3000 ± 1000 nM
[3]; K D fitted to SAXS V R titration curves, AustSynch, 20s exposure, […] 10^13 photons, HisBP 19 µM
  Kd: 2800 ± 310 nM
[3]; K D fitted to SAXS V R titration curves, AustSynch, 20s exposure, […] 10^13 photons, HisBP 38 µM
  Kd: 3000 ± 1400 nM
[3]; K D fitted to SAXS V R titration curves, AustSynch, 20s exposure, […] 10^13 photons, HisBP 76 µM
  Kd: 5500 ± 1400 nM
[3]; K D fitted to SAXS V R titration curves, DESY, 4s exposure, […] 10^13 photons, HisBP 20 µM
  Kd: 33000 ± 4500 nM
[3]; K D fitted to SAXS V R titration curves, DESY, 4s exposure, […] 10^13 photons, HisBP 40 µM
  Kd: 74000 ± 19000 nM
[3]; K D fitted to SAXS V R titration curves, DESY, 4s exposure, […] 10^13 photons, HisBP 80 µM
  Kd: 5900 ± 600 nM
[3]; K D fitted to SAXS V R titration curves, Diamond, 40s exposure, […] 10^14 photons, HisBP 10 µM
  Kd: 370 ± 140 nM
[3]; K D fitted to SAXS V R titration curves, Diamond, 40s exposure, […] 10^14 photons, HisBP 20 µM
  Kd: 920 ± 110 nM
[3]; K D fitted to SAXS V R titration curves, Diamond, 40s exposure, […] 10^14 photons, HisBP 40 µM
  Kd: 4800 ± 480 nM
[3]; K D fitted to SAXS V R titration curves, Diamond, 40s exposure, […] 10^14 photons, HisBP 80 µM
  Kd: 7300 ± 1900 nM
[3]; K D fitted to SAXS V R titration curves, ESRF, 5s exposure, 3.0 × 10^12 photons, HisBP 38 µM
  Kd: 2000 ± 1900 nM
[3]; K D fitted to SAXS V R titration curves, ESRF, 5s exposure, 3.0 × 10^12 photons, HisBP 160 µM
  Kd: 710 ± 1000 nM
[3]; KD fitted to SAXS Rg curves, AustSynch, 20s exposure, HisBP 19 µM
  Kd: 7700 ± 2000 nM
[3]; KD fitted to SAXS Rg curves, AustSynch, 20s exposure, HisBP 38 µM
  Kd: 52 ± 40 nM
[3]; KD fitted to SAXS Rg curves, AustSynch, 20s exposure, HisBP 76 µM
  Kd: 1600 nM
[3]; KD fitted to SAXS Rg curves, DESY, 4s exposure, HisBP 20 µM
  Kd: 15000 ± 6800 nM
[3]; KD fitted to SAXS Rg curves, DESY, 4s exposure, HisBP 40 µM
  Kd: 150000 ± 52000 nM
[3]; KD fitted to SAXS Rg curves, DESY, 4s exposure, HisBP 80 µM
  Kd: 27000 ± 7100 nM
[3]; KD fitted to SAXS Rg curves, Diamond, 40s exposure, HisBP 20 µM
  Kd: 810 nM
[3]; KD fitted to SAXS Rg curves, Diamond, 40s exposure, HisBP 40 µM
  Kd: 1500 ± 4400 nM
[3]; KD fitted to SAXS Rg curves, Diamond, 40s exposure, HisBP 80 µM
  Kd: 1100 ± 2500 nM
[3]; KD fitted to SAXS Rg curves, ESRF, 5s exposure, HisBP 38 µM
  Kd: 2600 nM
[3]; KD fitted to SAXS Rg curves, ESRF, 5s exposure, HisBP 160 µM
  Kd: 390 ± 280 nM
[3]; KD fitted to SAXS Vc curves, AustSynch, 20s exposure, HisBP 19 µM
  Kd: 2100 ± 6000 nM
[3]; KD fitted to SAXS Vc curves, AustSynch, 20s exposure, HisBP 38 µM
  Kd: 3700 ± 6600 nM
[3]; KD fitted to SAXS Vc curves, AustSynch, 20s exposure, HisBP 76 µM
  Kd: 2000 nM
[3]; KD fitted to SAXS Vc curves, DESY, 4s exposure, HisBP 20 µM
  Kd: 6300 nM
[3]; KD fitted to SAXS Vc curves, DESY, 4s exposure, HisBP 80 µM
  Kd: 17 ± 41 nM
[3]; KD fitted to SAXS Vc curves, Diamond, 40s exposure, HisBP 20 µM
  Kd: 6300 nM
[3]; KD fitted to SAXS Vc curves, Diamond, 40s exposure, HisBP 80 µM
  Kd: 38 nM
[3]; KD fitted to SAXS Vc curves, ESRF, 5s exposure, HisBP 7.6 µM
  Kd: 280 ± 720 nM
[3]; KD fitted to SAXS Vc curves, ESRF, 5s exposure, HisBP 38 µM
  Kd: 75 nM
[3]; KD fitted to SAXS Vc curves, ESRF, 5s exposure, HisBP 160 µM
  Kd: 910 nM
[3]; KD fitted to SAXS χlin. curves, AustSynch, 20s exposure, HisBP 19 µM
  Kd: 11000 ± 7600 nM
[3]; KD fitted to SAXS χlin. curves, AustSynch, 20s exposure, HisBP 38 µM
  Kd: 10000 ± 2000 nM
[3]; KD fitted to SAXS χlin. curves, AustSynch, 20s exposure, HisBP 76 µM
  Kd: 11000 ± 1400 nM
[3]; KD fitted to SAXS χlin. curves, DESY, 4s exposure, HisBP 20 µM
  Kd: 4100 ± 2100 nM
[3]; KD fitted to SAXS χlin. curves, DESY, 4s exposure, HisBP 40 µM
  Kd: 140000 ± 42000 nM
[3]; KD fitted to SAXS χlin. curves, DESY, 4s exposure, HisBP 80 µM
  Kd: 42000 ± 6700 nM
[3]; KD fitted to SAXS χlin. curves, Diamond, 40s exposure, HisBP 20 µM
  Kd: 1400 nM
[3]; KD fitted to SAXS χlin. curves, Diamond, 40s exposure, HisBP 40 µM
  Kd: 23000 ± 7100 nM
[3]; KD fitted to SAXS χlin. curves, Diamond, 40s exposure, HisBP 80 µM
  Kd: 12 ± 20 nM
[3]; KD fitted to SAXS χlin. curves, ESRF, 5s exposure, HisBP 7.6 µM
  Kd: 1900 ± 2000 nM
[3]; KD fitted to SAXS χlin. curves, ESRF, 5s exposure, HisBP 152 µM
  Kd: 91 nM
[4]
  K D derived from V R titration curves (result in words): No change
[5]
  Kd: 560 nM
